Data set [1] in a line: Weights and survival (Example 2, SCI-02). Type of data set: in vivo, Syrian Golden Hamsters. The method, then: All animals were weighed daily and their survival recorded, in order to assess possible differences in animal weight among treatment groups as an indication for mucositis severity and/or possible toxicity resulting from the treatments.
The mean daily percent weight change data was evaluated. The saline treated control hamsters gained an average of 44.1% of their starting weight during the study. Hamsters in the group receiving SCV-07 100 μg/kg once daily on days −1 to 20 gained an average of 49.9% of their starting weight during the study. Hamsters in the group receiving SCV-07 at 100 μg/kg twice daily on days −1 to 20 gained an average of 61.3% of their starting weight during the study. Hamsters in the group receiving SCV-07 at 1 mg/kg once daily on days −1 to 20 gained an average of 63.4% of their starting weight during the study. Hamsters in the group receiving SCV-07 at 1 mg/kg twice daily on days −1 to 20 gained an average of 69.1% of their starting weight during the study. The significance of these differences was evaluated by calculating the area-under-the-curve (AUC) for the weight gain of each animal, and then comparing the different treatment groups using a One-Way ANOVA test.

For data set [2], the system named is oral mucositis induced by fractionated radiation (eight doses of 7.5 Gy, left buccal cheek pouch). The experiment in a line: Oral mucositis induced by fractionated radiation in hamsters, mucositis scoring (Example 3, SCI-03). It is filed as in vivo, Syrian Golden Hamsters. Details: key: 0: Pouch completely healthy. No erythema or vasodilation.; 1: Light to severe erythema and vasodilation. No erosion of mucosa.; 2: Severe erythema and vasodilation. Erosion of superficial aspects of mucosa leaving denuded areas. Decreased stippling of mucosa.; 3: Formation of off-white ulcers in one or more places. Ulcers may have a yellow/gray due to pseudomembrane. Cumulative size of ulcers should equal about ¼ of the pouch. Severe erythema and vasodilation.; 4: Cumulative seize of ulcers should equal about ½ of the pouch. Loss of pliability. Severe erythema and vasodilation.; 5: Virtually all of pouch is ulcerated. Loss of pliability (pouch can only partially be extracted from mouth).
Description: The fractionated radiation model in hamsters, developed by the Principal Investigator, has proven to be an accurate, efficient and cost-effective technique to provide a preliminary evaluation of anti-mucositis compounds. In this model, hamsters receive 8 doses of 7.5 Gy to the left cheek pouch on days 0, 1, 2, 3, […], rather than the single dose of 40 Gy on day 0 that is used in acute radiation studies. The rationale for using this scheduling for the radiation is that it more closely resembles the clinical courses of radiotherapy given to cancer patients. The course of mucositis in this model is well defined and results in peak mucositis scores approximately 14-16 days following radiation. Mortality (generally from the side effects of anesthesia) in the fractionated radiation model is slightly higher than that seen in the acute radiation model and group sizes are increased (to 10 per group) to allow for this.
(§1) Forty (40) male Syrian Golden Hamsters were given eight doses of radiation of 7.5 Gy each directed to their left buccal cheek pouch on days 0, 1, 2, 3, 6, 7, 8 and 9. This was accomplished by anesthetizing the animals and everting the left buccal pouch, while protecting the rest of the animal's bodies with a lead shield. Test materials were given by sub-cutaneous injection once daily as detailed in Table 9. Mucositis was evaluated clinically starting on day 7, and continuing on alternate days until day 35. Test articles were given as outlined Table 9, Groups 1 and 2 were dosed from Day −1 to Day 29, Group 3 was dosed on the days of radiation only, Group 4 was dosed on the days between Day −15 and Day 29 on which no radiation is given (Day −1, Day 4, Day 5 and Day 10 to Day 29).
The effect on mucositis of each drug treatment compared to placebo was assessed according to the following parameters:
On each evaluation day, the number of animals with a blinded mucositis score of ≧3 in each drug treatment group was compared to the control group. Differences were compared on a cumulative basis and statistical significance was determined by chi-square analysis. Efficacy, in this analysis, is defined by a significant reduction in the number of days that a group of animals had ulcerations (scores ≧3) when compared to the control group.
For each evaluation day the scores of the control group were compared to those of the treated groups using non-parametric rank sum analysis. Treatment success was considered as a statistically significant lowering of scores in the treated group on 2 or more days from day 6 to day 28.
as §1, with “daily at 8:00 am” for “daily”, “9. […]” for “9. Mucositis was evaluated clinically starting on day 7, and continuing on alternate days until day 35.”, “2 was” for “2 were”, “radiation only (days 0-3 and days 6-10),” for “radiation only,”, “Day −1” for “Day −15”, “Day 4 to” for “Day 4,”
Radiation was generated with a Philips 160 kVp (kilovolt potential) (18.75-ma) X-ray source at a focal distance of 30 cm, with a 3.0 mm hardened Al filtration system. Irradiation was targeted to the left buccal pouch mucosa at a rate of 3.32 Gy/minute. […] Using this calibration, the energy received by each animal at each radiation dose was approximately 64.5 nC (nanoCoulombs) at each time point. Prior to irradiation, animals were anesthetized with an intraperitoneal injection of ketamine (160 mg/kg) and xylazine (8 mg/kg). The left buccal pouch was everted, fixed and isolated using a lead shield.
The mucositis score, weight change and survival were measured throughout the study as described above. […]

“And” between values parts separate entries of the source, which are not always exact repeats. Equal values may be shown once.

With `N[C@H](CCC(=O)N[C@@H](Cc1c[nH]c2ccccc12)C(=O)O)C(=O)O` [SCV-07, γ-D-glutamyl-L-tryptophan], the “average weight gain, % of starting weight during the study” value in data set [1] (100 ug/kg once daily on days -1 to 20) is 49.9%; in data set [1] (100 ug/kg twice daily on days -1 to 20), 61.3%; in data set [1] (1 mg/kg once daily on days -1 to 20), 63.4%; in data set [1] (1 mg/kg twice daily on days -1 to 20), 69.1%. Also, the “P, weight gain greater than saline controls” value stood at 0.014 in data set [1] (100 ug/kg twice daily), 0.009 in data set [1] (1 mg/kg once daily) and 0.004 in data set [1] (1 mg/kg twice daily). Besides, the “P, One-Way ANOVA of weight gain AUC, SCV-07 treated groups vs control group” value in data set [1] (all SCV-07 groups, significant differences) was determined as 0.012. Moreover, the Mucositis score is 0 in data set [2] (Group 2, day 7, individual animals (two score lines each)); 1 (5×) and 0 (2×) in data set [2] (Group 2, day 9, individual animals (two score lines each)); 1 in data set [2] (Group 2, day 11, individual animals (two score lines each)); 3 in data set [2] (Group 2, day 13, individual animals (two score lines each)); 3 in data set [2] (Group 2, day 15, individual animals (two score lines each)); 3 in data set [2] (Group 2, day 17, individual animals (two score lines each)). Moreover, the Mucositis score in data set [2] (Group 2, day 21, individual animals (two score lines each)) was 3; in data set [2] (Group 2, day 23, individual animals (two score lines each)), 3; in data set [2] (Group 2, day 25, individual animals (two score lines each)), 3; in data set [2] (Group 2, day 27, individual animals (two score lines each)), 3; in data set [2] (Group 2, day 31, individual animals (two score lines each)) it was 0 (2×) and 1 (3×); in data set [2] (Group 2, day 33, individual animals (two score lines each)) it was 1. The Mucositis score in data set [2] (Group 2, day 35, individual animals (two score lines each)) was 1 (3×) and 0 (4×).

The values above are taken from patent publication US7906486B2, “Method of treating or preventing tissue deterioration, injury or damage due to disease of mucosa” (SciClone Pharmaceuticals, Inc., priority 2007, dated 2011).
